From patent US5185320A, “O^56 -alkyl derivatives of aglycone and pseudo aglycones of teicoplanin” (Gruppo Lepetit S.p.A., priority 1989, dated 1993)

Experiments:
Format in all cases: cell-based
Settings in all cases: inoculum about 10^4 CFU/ml, 18-24 h at 37° C.
[1] = test system: Proteus vulgaris ATCC 881; assay: MIC, standard dilution test, Proteus vulgaris ATCC 881
Method: (§1) ISOSENSITEST broth (Oxoid) and TOLLD-HEWITT broth (Difco) are used for growing staphylococci and streptococci, respectively. Broth cultures are diluted so that the final inoculum is about 10^4 colony forming units/ml (CFU/ml).

[2] = test system: Strep. pyogenes C 203; assay: MIC, standard dilution test, Strep. pyogenes C 203
Method: as §1

[3] = test system: Staph. aureus Tour L 165; assay: MIC, standard dilution test, Staph. aureus Tour L 165
Method: as §1

[4] = test system: Staph. epidermidis ATCC 12228; assay: MIC, standard dilution test, Staph. epidermidis ATCC 12228
Method: as §1

[5] = test system: Haemophilus influenzae ATCC 19418; assay: MIC, standard dilution test, Haemophilus influenzae ATCC 19418
Method: as §1

[6] = test system: Pseudomonas aeruginosa ATCC 10145; assay: MIC, standard dilution test, Pseudomonas aeruginosa ATCC 10145
Method: as §1

[7] = test system: Strep. faecalis ATCC 7080; assay: MIC, standard dilution test, Strep. faecalis ATCC 7080
Method: as §1

[8] = test system: Strep. pneumoniae UC41; assay: MIC, standard dilution test, Strep. pneumoniae UC41
Method: as §1

[9] = test system: Staph. haemolyticus L 602; assay: MIC, standard dilution test, Staph. haemolyticus L 602
Method: as §1

[10] = test system: Escherichia coli SKF 12140; assay: MIC, standard dilution test, Escherichia coli SKF 12140
Method: as §1

[11] = test system: Neisseria gonorrhoeae ISM68/126; assay: MIC, standard dilution test, Neisseria gonorrhoeae ISM68/126
Method: as §1

[12] = test system: Strep. mitis L 796; assay: MIC, standard dilution test, Strep. mitis L 796
Method: as §1

Minimal inhibitory concentration (MIC) [1]	Minimal inhibitory concentration (MIC) [2]	Minimal inhibitory concentration (MIC) [3]	Minimal inhibitory concentration (MIC) [4]	Minimal inhibitory concentration (MIC) [5]	Minimal inhibitory concentration (MIC) [6]	Minimal inhibitory concentration (MIC) [7]	Minimal inhibitory concentration (MIC) [8]	Minimal inhibitory concentration (MIC) [10]	Minimal inhibitory concentration (MIC) [11]	Minimal inhibitory concentration (MIC) [12]	SMILES	Minimal inhibitory concentration (MIC) [9]
64	0.063	0.125	0.063	64	> 128	0.5	0.125	32	64	0.25	COC(=O)C1NC(=O)C2NC(=O)C(NC(=O)C3NC(=O)C4NC(=O)C(Cc5ccc(c(Cl)c5)Oc5cc3cc(c5OCC3CO3)Oc3ccc(cc3Cl)C2O)NC(=O)C(N)c2ccc(O)c(c2)Oc2cc(O)cc4c2)c2ccc(O)c(c2)-c2c(O)cc(O)cc21.Cl (stereo not shown) [Compound 1, O^56-(2,3-epoxypropyl)deglucoteicoplanin methyl ester]	1
> 128	0.125	2	2	> 128	> 128	4	0.125	> 128	> 128	0.125	COC(=O)C1NC(=O)C2NC(=O)C(NC(=O)C3NC(=O)C4NC(=O)C(Cc5ccc(c(Cl)c5)Oc5cc3cc(c5OCCCCN3C(=O)c5ccccc5C3=O)Oc3ccc(cc3Cl)C2O)NC(=O)C(N)c2ccc(O)c(c2)Oc2cc(O)cc4c2)c2ccc(O)c(c2)-c2c(O)cc(O)cc21.Cl (stereo not shown) [Compound 2, O^56-[4(N-phthalimido)butyl]deglucoteicoplanin methyl ester]	4
128	0.063	0.125	0.125	128	64	0.25	0.25	16	64	0.125	COC(=O)C1NC(=O)C2NC(=O)C(NC(=O)C3NC(=O)C4NC(=O)C(Cc5ccc(c(Cl)c5)Oc5cc3cc(c5OC(CCO)C(=O)NCCN)Oc3ccc(cc3Cl)C2O)NC(=O)C(N)c2ccc(O)c(c2)Oc2cc(O)cc4c2)c2ccc(O)c(c2)-c2c(O)cc(O)cc21.Cl (stereo not shown) [Compound 4, O^56-[1-[[2-aminoethylamino]carbonyl]3-hydroxypropyl]deglucoteicoplanin methyl ester hydrochloride]	0.5
32	0.063	0.125	0.125	–	32	0.125	0.125	8	–	0.125	COC(=O)C1NC(=O)C2NC(=O)C(NC(=O)C3NC(=O)C4NC(=O)C(Cc5ccc(c(Cl)c5)Oc5cc3cc(c5OCCCCN)Oc3ccc(cc3Cl)C2O)NC(=O)C(N)c2ccc(O)c(c2)Oc2cc(O)cc4c2)c2ccc(O)c(c2)-c2c(O)cc(O)cc21 (stereo not shown) [Compound 5, O^56-(4-aminobutyl)deglucoteicoplanin methyl ester]	0.5
> 128	0.032	0.25	0.25	–	> 128	0.5	0.25	16	128	0.125	COC(=O)C1NC(=O)C2NC(=O)C(NC(=O)C3NC(=O)C4NC(=O)C(Cc5ccc(c(Cl)c5)Oc5cc3cc(c5OCCCCN(CCN(C)C)CCN(C)C)Oc3ccc(cc3Cl)C2O)NC(=O)C(N)c2ccc(O)c(c2)Oc2cc(O)cc4c2)c2ccc(O)c(c2)-c2c(O)cc(O)cc21 (stereo not shown) [Compound 6, O^56-[4-[bis[2-(dimethylamino)ethyl]amino]butyl]deglucoteicoplanin methyl ester]	0.5
> 128	0.125	0.125	0.5	64	> 128	2	0.125	> 128	> 128	0.25	COC(=O)C1NC(=O)C2NC(=O)C(NC(=O)C3NC(=O)C4NC(=O)C(Cc5ccc(c(Cl)c5)Oc5cc3cc(c5OCCCl)Oc3ccc(cc3Cl)C2O)NC(=O)C(N)c2ccc(O)c(c2)Oc2cc(O)cc4c2)c2ccc(O)c(c2)-c2c(O)cc(O)cc21 (stereo not shown) [Compound 7, O^56-(2-chloroethyl) deglucoteicoplanin methyl ester]	1
> 128	0.063	0.125	0.125	64	> 128	0.125	0.125	32	32	0.125	COC(=O)C1NC(=O)C2NC(=O)C(NC(=O)C3NC(=O)C4NC(=O)C(Cc5ccc(c(Cl)c5)Oc5cc3cc(c5OCCO)Oc3ccc(cc3Cl)C2O)NC(=O)C(N)c2ccc(O)c(c2)Oc2cc(O)cc4c2)c2ccc(O)c(c2)-c2c(O)cc(O)cc21 (stereo not shown) [Compound 8, O^56-(2-hydroxyethyl) deglucoteicoplanin methyl ester]	2
32	0.063	0.25	0.125	64	64	0.125	0.125	8	64	0.125	CNC(=O)C1NC(=O)C2NC(=O)C(NC(=O)C3NC(=O)C4NC(=O)C(Cc5ccc(c(Cl)c5)Oc5cc3cc(c5OCCCCN)Oc3ccc(cc3Cl)C2O)NC(=O)C(N)c2ccc(O)c(c2)Oc2cc(O)cc4c2)c2ccc(O)c(c2)-c2c(O)cc(O)cc21 (stereo not shown) [Compound 9, O^56-(4-aminobutyl)-deglucoteicoplanin methylamide]	0.25
> 128	0.125	0.13	–	–	> 128	–	–	> 128	–	–	COC(=O)CNC(=O)CNCCOc1c2cc3cc1Oc1ccc(cc1Cl)C(O)C1NC(=O)C(NC(=O)C3NC(=O)C3NC(=O)C(Cc4ccc(c(Cl)c4)O2)NC(=O)C(N)c2ccc(O)c(c2)Oc2cc(O)cc3c2)c2ccc(O)c(c2)-c2c(O)cc(O)cc2C(C(=O)OCCBr)NC1=O (stereo not shown) [Compound 18, O^56-[2-[2-[(2-methoxy-2-oxoethyl)amino]-2-oxoethylamino]ethyl]deglucoteicoplanin 2-bromoethyl ester]	2
–	0.125	0.06	–	–	–	–	–	32	–	–	NC1C(=O)NC2Cc3ccc(c(Cl)c3)Oc3cc4cc(c3OCCO)Oc3ccc(cc3Cl)C(O)C3NC(=O)C(NC(=O)C4NC(=O)C(NC2=O)c2cc(O)cc(c2)Oc2cc1ccc2O)c1ccc(O)c(c1)-c1c(O)cc(O)cc1C(C(=O)OCCO)NC3=O (stereo not shown) [Compound 22, O^56-(2-hydroxyethyl)deglucoteicoplanin 2-hydroxyethyl ester]	0.5

SMILES	Minimal inhibitory concentration (MIC) [1]	Minimal inhibitory concentration (MIC) [2]	Minimal inhibitory concentration (MIC) [3]	Minimal inhibitory concentration (MIC) [4]	Minimal inhibitory concentration (MIC) [5]	Minimal inhibitory concentration (MIC) [6]	Minimal inhibitory concentration (MIC) [7]	Minimal inhibitory concentration (MIC) [8]	Minimal inhibitory concentration (MIC) [10]	Minimal inhibitory concentration (MIC) [11]	Minimal inhibitory concentration (MIC) [12]	Minimal inhibitory concentration (MIC) [9]
COC(=O)C1NC(=O)C2NC(=O)C(NC(=O)C3NC(=O)C4NC(=O)C(Cc5ccc(c(Cl)c5)Oc5cc3cc(c5OC(CCO)C(=O)O)Oc3ccc(cc3Cl)C2O)NC(=O)C(N)c2ccc(O)c(c2)Oc2cc(O)cc4c2)c2ccc(O)c(c2)-c2c(O)cc(O)cc21.Cl (stereo not shown) [Compound 3, O^56-(1-carboxy-3-hydroxypropyl)deglucoteicoplanin methyl ester hydrochloride]	> 128	0.125	0.5	0.25	> 128	> 128	0.125	0.125	> 128	64	0.25	2
